Measured values as given in US4939177A, “Use of avarol for the control of AIDS and ARC” (Merz + Co. GmbH & Co., priority 1986, dated 1990).
Like-named read-outs stand apart in the source and are kept apart here.

Legend:
lymphoma cell = conditions: previous studies; cited from earlier work
[1] = tested on: L5178y mouse lymphoma cells; test: L5178y cell growth; format: cell-based; conditions: 72 hours
Description: mouse lymphoma cells were grown in roller tube cultures in Eagle's minimum essential medium, supplemented with 10% horse serum (Muller et al., Cancer Res. 39: 1102-1107; 1979 and Muller et al. Cancer Res. 45: 4822-4826; 1985). […] The cell growth was determined by cell count with a computer supported cell-counter (128-channel counter; Cytocomp, system Michaelis: BIOTRON-Medizinelektronik, Mainz; West Germany). The ED50 (±SD) was estimated by logit regression (L. Sachs, […], Springer-Verlag, Berlin 1984). The mathematical evaluation of the fractional inhibitory concentration indices (FIC indices) of Avarol/Avarone-DDC combinations was performed according to published equations and experimental conditions (Muller et al., Cancer Lett. 1: 127-132; 1976; and Phillips et al., Antimicrob. Agents Chemother. 9: 736-740, 1976). […] In this set of experiments, […] cells were incubated with Avarol in the absence or presence of the established SODase inhibitor DDC.

[2] = Organ distribution of tritium labelled avarol in rats; format: in vivo, rat; conditions: for Concentration of Avarol, Brain / Concentration of Avarol, Heart / Concentration of Avarol, Kidney / Concentration of Avarol, Liver / Concentration of Avarol, Skin / Concentration of Avarol, Spleen / Concentration of Avarol, Testes: rat, 24 hours
[3] = tested on: DTH to oxazolone in NMRI mice; test: Contact allergy to oxazolone; format: in vivo, mouse; conditions: 3-30 mg/kg i.p., day -1 to +2 or day +6 to +8, P>0.05
Description: Allergic contact dermatitis against oxazolone was produced according to the method of Asherson and Ptak (Immunol. 15: 405-416; 1968) as well as those of Bure and Degrand (Agents and Actions 9: 534; 1979). Male NMRI mice (20-22 g; 10/group) were sensitized with 100 μl of a 2% oxazolone in acetone solution onto the shaved abdomen (day 0). Animals were treated with avarol (i.p.) daily from day -1 to +2 or from day +6 to +8; control group was treated with deoxymethasone (Casella-Hoechst) as a standard per os at a daily dose of 30 mg/kg for the same period of time as for avarol. Seven days after sensitization 10 μl of a 3% oxazolane (this concentration was previously found to give more reproducible results than the lower 2% concentration) solution were topically applied onto the inner side of one ear, whereas the other ear received only acetone. […] Treated groups were compared with controls using the U-test.

IgG titer = test: Serum IgG titer of SRBC-immunized mice; format: in vivo, mouse; conditions: 30 mg/kg i.p., untreated 4
Description: The plaque test of Jerne and Nordin (Science 140: 405-406, 1963) was used with the modification given by Cunningham and Szenberg (Immunolog. 14: 599-601; 1968). Briefly, 8 male NMRI mice per group (20-22 g) were immunized on day 0 by i.p. injection of 5×10^8 SRBC in 0.5 ml saline. Treatment with avarol was done i.p. either from day 0 to day +4 or from day -4 to day 0. One hour after the last drug administration, the animals were killed by a blow on the head and bled. The spleens were removed and a single cell suspension was prepared by teasing the pooled spleens through a 120-μm mesh sieve. After lysing the erythrocytes by 0.15M NH4 Cl, the cells were washed twice in Hank's balanced salt solution containing 29 ml of 7.5% NaHCO3 and 10 ml of 1M HEPES buffer solution per one liter. The cells were resuspended in 2 ml per spleen. Six Cunningham chambers per group were filled with a mixture of 0.5 ml of a suitable dilution of spleen cells (generally 1:100), 0.5 ml of a suspension of SRBC (10^9 /ml) and 125 μl of normal guinea pig complement. After 90-120 min of incubation at 37° C., the number of plaques was counted. Plaques per spleen or per 10^6 spleen cells were calculated.
The pooled blood of 8 mice was centrifuged to obtain the serum. IgM and IgG titers were measured with the mercaptoethanol method (Hudson, L. and Hay, F. C. Practical Immunology, Blackwell Sci., Oxford; 1983).

[4] = Chemical nature and biological activity of radioactive product in rat blood (HPLC; L5178y system); format: in vivo; conditions: iv, after circulation in the body for 22 hours, read-out: modification to a biologically-inactive form
Description: These concentrations were determined on the basis of radioactivity. Moreover, the chemical nature of the radioactive product was identified by high-pressure liquid chromatography and found to consist of over 90% of Avarol. In addition, the biological activity of the compound in the blood was determined after extraction with ethyl acetate and estimated in the L5178y cell system in vitro (Muller, W.E.G. et al.; Comp. Biochem. Physiol. 80C, 47-52; 1985). Using this system, the biological activity of the compound, present in the blood, was determined and converted on a gram basis. Using this approach the concentration in the blood was only 5-15% lower than that determined on the basis of radioactivity.

Structure (SMILES): CC1=CCC[C@H]2[C@](C)(Cc3cc(O)ccc3O)[C@@H](C)CC[C@]12C [Avarol, 2-[(1R)-1,2,3,4,4a,7,8,8aα-octahydro-1β,2β,4aβ,5-tetramethyl-1-naphthylmethyl]-1,4-benzenediol]
- concentration inhibiting lymphoma cell growth by 50% (lymphoma cell): 0.3 to 0.4 µg/mL
- sensitivity of T-cell derived leukemia cells vs normal T- or B-lymphocytes (lymphoma cell): more sensitively inhibited
- IC50 ([1]; DDC 1.46 μM, read-out: ED50 with coaddition of DDC): 270 ± 40 nM
- IC50 ([1]; DDC 1.71 μM, read-out: ED50 with coaddition of DDC): 108 ± 15 nM
- IC50 ([1]; Mus musculus, L5178Y, cell growth, absence of DDC, read-out: ED50 (the source's name)): 940 ± 140 nM
- Concentration of Avarol, Brain ([2]; i.v. 2 mg/kg): 0.45 microgram of Avarol per gram o
- Concentration of Avarol, Heart ([2]; i.v. 2 mg/kg): 0.7 microgram of Avarol per gram o
- Concentration of Avarol, Kidney ([2]; i.v. 2 mg/kg): 1.6 microgram of Avarol per gram o
- Concentration of Avarol, Liver ([2]; i.v. 2 mg/kg): 6.4 microgram of Avarol per gram o
- Concentration of Avarol, Skin ([2]; i.v. 2 mg/kg): 0.4 microgram of Avarol per gram o
- Concentration of Avarol, Spleen ([2]; i.v. 2 mg/kg): 1.7 microgram of Avarol per gram o
- Concentration of Avarol, Testes ([2]; i.v. 2 mg/kg): 0.48 microgram of Avarol per gram o
- Concentration of Avarol, Brain ([2]; i.v. 10 mg/kg): 0.58 microgram of Avarol per gram o
- Concentration of Avarol, Heart ([2]; i.v. 10 mg/kg): 0.9 microgram of Avarol per gram o
- Concentration of Avarol, Kidney ([2]; i.v. 10 mg/kg): 2.2 microgram of Avarol per gram o
- Concentration of Avarol, Liver ([2]; i.v. 10 mg/kg): 6.9 microgram of Avarol per gram o
- Concentration of Avarol, Skin ([2]; i.v. 10 mg/kg): 0.6 microgram of Avarol per gram o
- Concentration of Avarol, Spleen ([2]; i.v. 10 mg/kg): 1.9 microgram of Avarol per gram o
- Concentration of Avarol, Testes ([2]; i.v. 10 mg/kg): 0.63 microgram of Avarol per gram o
- Concentration of Avarol, Brain ([2]; i.v. 20 mg/kg): 0.64 microgram of Avarol per gram o
- Concentration of Avarol, Heart ([2]; i.v. 20 mg/kg): 0.9 microgram of Avarol per gram o
- Concentration of Avarol, Kidney ([2]; i.v. 20 mg/kg): 2.4 microgram of Avarol per gram o
- Concentration of Avarol, Liver ([2]; i.v. 20 mg/kg): 7.4 microgram of Avarol per gram o
- Concentration of Avarol, Skin ([2]; i.v. 20 mg/kg): 0.6 microgram of Avarol per gram o
- Concentration of Avarol, Spleen ([2]; i.v. 20 mg/kg): 2.2 microgram of Avarol per gram o
- Concentration of Avarol, Testes ([2]; i.v. 20 mg/kg): 0.67 microgram of Avarol per gram o
- blood-brain barrier penetration ([2]; rats, i.v.): penetrates the blood-brain barrier
- influence on DTH to oxazolone, in words [3]: did not influence significantly
- Titer IgG (IgG titer; from 0 to +4 days): 2
- Titer IgG (IgG titer; from -4 to 0 days): 4
- metabolised at 22 h [4]: ≤ 15%
